Where a SMILES comes first, the peptide text is derived from it. [ ]: non-standard residue; d: D form. ξ: configuration not given here. ξαMeBip(2'-Et,4'-OMe) = CCc1cc(OC)ccc1-c1ccc(CC(C)(N)C(=O)O)cc1; ξBip(2'-Et-4'-OMe) = CCc1cc(OC)ccc1-c1ccc(CC(N)C(=O)O)cc1; ξαMe(hhPhe) = CC(N)(CCCc1ccccc1)C(=O)O; ξαMePhe(2-F) = CC(N)(Cc1ccccc1F)C(=O)O; ξαMeD = CC(N)(CC(=O)O)C(=O)O; ξαMeS = CC(N)(CO)C(=O)O; Aib = CC(C)(N)C(=O)O
Assays:
[1] = Stability in simulated gastric fluid; format: in vitro ADME; conditions: 2 μM, 37° C.; for % degradation in 24 h when incubated with simulated gastric fluid: pH 1.5, 24 h
Experimental: (§1) Reactions were terminated by the addition of TFA/H2O ([…], 10% (v/v)). […] The column was equilibrated with TFA/H20, at a flow rate of 1 mL/min. […] The absorbance was monitored at 206 nm using UV detector and peaks were collected manually prior to ESI-MS analysis.

[2] = Stability in liver microsomes; format: in vitro ADME, human; conditions: 2 μM, 37° C.; for half-life: human, microsomes, read-out: half-life (t1/2) in liver microsomes
Experimental: as §1

[3] = Stability in human plasma; format: in vitro ADME; conditions: 2 μM, 37° C.
Experimental: (§2) Different peptidomimetics (final concentration 2 μM) were incubated with either DPP IV (1:25 mU) or pooled human plasma (7.5 μL) or simulated gastric fluid (pH 1.5; composition HCl, NaCl and Pepsin) or simulated intestinal fluid (pH 7.5) or human liver microsomes, for 0, 2, 4, 6, 12 and 24 h (37° C.; 50 mM triethanolamine-HCl buffer; pH 7.8). […] Reactions were terminated by the addition of TFA/H2O ([…], 10% (v/v)). The reaction products were then applied to a Vydac C18 analytical column (4.6×250-mm) and the major degradation fragment separated from intact peptidomimetic. The column was equilibrated with TFA/H20, at a flow rate of 1 mL/min. Using 0.1% (v/v) TFA in 70% acetonitrile/H2O, the concentration of acetonitrile in the eluting solvent was raised from 0% to 28% over 10 min and from 28% to 42% over 30 min. The absorbance was monitored at 206 nm using UV detector and peaks were collected manually prior to ESI-MS analysis. Area under the curve was measured for test peptidomimetics and their metabolites and percentage degradation were calculated at each time point over a period of 24 h.

[4] = tested on: RIN5F (Rat Insulinoma) cells; experiment: In vitro glucose-dependent insulin secretion (RIN5F cell assay); format: cell-based; conditions: 16.7-mM glucose load, n = 3, mean ± S.D.
Experimental: RIN5F (Rat Insulinoma) cells were cultured in RPMI 1640 medium supplemented with sodium pyruvate (1 mM) HEPES and Glucose (4.5 g/L) in a humidified incubator (5% CO2), at 37° C. After trypsinization, RIN5F cells were seeded at a concentration of 0.2×10^6 cells per well, in 12 well plates. The cells were grown overnight to 80% confluence and insulin secretion experiments were performed as follows (Montrose-Rafizadeh C., et al., Mol. Cell. Endo. 1997, 130, 109.; Wang, X., et al., Endocrinology 2001, 5, 1820).
The cells were washed once with PBS solution followed by 40 min. incubation in fresh Krebs-Ringer Balanced Buffer containing NaCl (115 mmol/L), KCl (4.7 mmol/L), CaCl2 (1.28 mmol/L), MgSO4.7H2O (1.2 mmol/L), KH2PO4 (1.2 mmol/L), NaHCO3 (10 mmol/L) and HEPES (25 mmol/L), containing Glucose (1.1 mM) and B.S.A (0.5%), pH 7.4. The buffer was replaced after 40 min. and the cells were incubated (37° C.) with the test peptidomimetics, at different concentration, for 30 min., both in the presence (16.7 mM) and absence (0 mM) of glucose load. The supernatant was collected and the insulin amount was measured by ultra sensitive Rat insulin ELISA kit (Crystal Chem, IL). The protein was estimated in the supernatant using Bicinchoninic Acid kit, according to the manufacturer's protocol (Sigma Aldrich, MO). The total insulin content obtained in Pico-gram (pg) was divided with the total protein (μg) in order to normalize for differences in cell density between wells.

[5] = Stability in simulated intestinal fluid; format: in vitro ADME; conditions: 2 μM, 37° C.; for % degradation in 24 h when incubated with simulated intestinal fluid: pH 7.5, 24 h
Experimental: as §1

DPP IV enzyme = DPP IV enzyme (Homo sapiens, UniProt P27487); experiment: Stability against DPP IV enzyme; format: in vitro ADME; conditions: 2 μM, 37° C.
Experimental: as §2

male C57BL/6J mice = experiment: Acute single dose 120-min time-course experiment, in vivo glucose reduction; set-up: unit not given here; conditions: n = 8, Mean ± SEM
Experimental: Acute single dose 120-min time-course experiments were carried out in male C57BL/6J or db/db mice, age 8-12 weeks, bred in-house. The animals were housed in groups of 6 animals per cage, for a week, in order to habituate them to vivarium conditions (25+4° C., 60-65% relative humidity, 12:12 h light: dark cycle, with lights on at 7.30 am). All the animal experiments were carried out according to the internationally valid guidelines following approval by the ‘Zydus Research Center animal ethical committee’.
[…] On the day of experiment, food was withdrawn from all the cages, water was given ad-libitum and were kept for overnight fasting. Vehicle (normal saline)/test/standard compounds were administered intraperitoneally (i.p.) or orally, on a body weight basis. Soon after the 0 min. blood collection from each animal, the subsequent blood collections were done at 30, 60 and 120 or upto 240 min., via retro-orbital route, under light ether anesthesia (Chen, D., et al., Diabetes Obesity Metabolism, 2005, 7, 307. Kim, J. G. et al., Diabetes, 2003, 52, 751).
The blood samples were centrifuged and the separated serum was immediately subjected for the glucose estimation. The serum for insulin estimation was stored at −70° C. until used for the insulin estimation. The glucose estimation was carried out with DPEC-GOD/POD method (Ranbaxy Fine Chemicals Limited, Diagnostic division, India), using Spectramax-190, in 96-microwell plate reader (Molecular devices Corporation, Sunnyvale, Calif.). […] The AUC and BCAUC obtained from graphs were analyzed for one way ANOVA, followed by Dunnett's post test, using Graph Pad prism software. Furthermore, the insulin estimation was carried out using rat/mouse insulin ELISA kit (Linco research, Missouri USA).

Chain of DPP IV enzyme (P27487 whole entry, species assumed): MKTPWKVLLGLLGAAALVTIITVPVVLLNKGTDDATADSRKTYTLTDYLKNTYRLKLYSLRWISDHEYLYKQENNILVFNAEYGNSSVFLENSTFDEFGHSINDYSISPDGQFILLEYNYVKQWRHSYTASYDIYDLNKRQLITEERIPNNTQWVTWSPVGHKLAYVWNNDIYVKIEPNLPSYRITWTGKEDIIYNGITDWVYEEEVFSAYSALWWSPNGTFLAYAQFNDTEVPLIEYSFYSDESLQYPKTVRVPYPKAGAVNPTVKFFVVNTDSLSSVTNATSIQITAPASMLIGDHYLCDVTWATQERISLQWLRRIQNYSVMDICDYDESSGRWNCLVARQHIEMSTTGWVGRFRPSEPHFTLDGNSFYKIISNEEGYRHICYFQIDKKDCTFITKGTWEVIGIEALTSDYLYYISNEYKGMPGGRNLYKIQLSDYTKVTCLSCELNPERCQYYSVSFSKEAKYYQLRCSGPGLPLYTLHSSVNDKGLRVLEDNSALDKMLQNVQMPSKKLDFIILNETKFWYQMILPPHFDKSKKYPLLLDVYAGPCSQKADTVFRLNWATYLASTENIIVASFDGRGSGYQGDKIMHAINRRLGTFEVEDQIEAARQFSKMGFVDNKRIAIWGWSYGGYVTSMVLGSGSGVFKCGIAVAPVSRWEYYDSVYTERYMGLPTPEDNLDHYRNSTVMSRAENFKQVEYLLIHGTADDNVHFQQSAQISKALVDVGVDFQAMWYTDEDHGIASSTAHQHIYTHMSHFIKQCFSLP

## CCc1cc(OC)ccc1-c1ccc(CC(NC(=O)C(C)(CC(=O)O)NC(=O)C(C)(CO)NC(=O)[C@@H](NC(=O)[C@H](Cc2ccccc2)NC(=O)[C@@H](NC(=O)CNC(=O)[C@H](CCC(=O)O)NC(=O)[C@H](C)NC(=O)[C@H](Cc2c[nH]cn2)NC(=O)[C@@H](N)C(C)C)[C@@H](C)O)[C@@H](C)O)C(=O)NC(C)(CCCc2ccccc2)C(N)=O)cc1 (stereo partly shown) [compound 112] (H-VHAEGTFT[ξαMeS][ξαMeD][ξBip(2'-Et-4'-OMe)][ξαMe(hhPhe)]-NH2)
[1]
  % degradation in 24 h when incubated with simulated gastric fluid: 100%
[1]; simulated gi fluid, pH 1.5, read-out: half-life (t1/2) in simulated gastric fluid
  half-life: 30 min
[2]
  % degradation in 24 h when incubated with liver microsomes: 100%
  half-life: 30 min
[3]
  half-life (t1/2) in human plasma: (9) h
  % degradation in 24 h when incubated with human plasma: 71%
[4]; 0.1 nM test compd.
  Insulin secretion: 12.3 ± 0.33 pg/µg/h
[4]; 1 nM test compd.
  Insulin secretion: 14.8 ± 0.16 pg/µg/h
[4]; 10 nM test compd.
  Insulin secretion: 28.1 ± 0.22 pg/µg/h
[5]
  % degradation in 24 h when incubated with simulated intestinal fluid: 100%
[5]; simulated gi fluid, pH 7.5, read-out: half-life (t1/2) in simulated intestinal fluid
  half-life: 30 min
DPP IV enzyme
  % degradation in 24 h when incubated with DPP-IV enzyme: 70%

## CCc1cc(OC)ccc1-c1ccc(CC(C)(NC(=O)C(C)(CC(=O)O)NC(=O)[C@H](CO)NC(=O)[C@@H](NC(=O)C(C)(Cc2ccccc2F)NC(=O)[C@@H](NC(=O)CNC(=O)[C@H](CCC(N)=O)NC(=O)C(C)(C)NC(=O)[C@H](Cc2c[nH]cn2)NC(=O)[C@@H](N)C(C)C)[C@@H](C)O)[C@@H](C)O)C(=O)NC(C)(CCCc2ccccc2)C(N)=O)cc1 (stereo partly shown) [compound 191] (H-VH[Aib]QGT[ξαMePhe(2-F)]TS[ξαMeD][ξαMeBip(2'-Et,4'-OMe)][ξαMe(hhPhe)]-NH2)
[1]; pH 1.5
  half-life (t1/2) in simulated gastric fluid: (8) h
[1]
  % degradation in 24 h when incubated with simulated gastric fluid: 12%
[2]
  % degradation in 24 h when incubated with liver microsomes: 79%
  half-life: 60 min
[3]
  % degradation in 24 h when incubated with human plasma: 78%
[3]; human, plasma, read-out: half-life (t1/2) in human plasma
  half-life: 480 min
[4]; 0.1 nM test compd.
  Insulin secretion: 16.1 ± 0.22 pg/µg/h
[4]; 1 nM test compd.
  Insulin secretion: 22.1 ± 0.26 pg/µg/h
[4]; 10 nM test compd.
  Insulin secretion: 36.0 ± 0.36 pg/µg/h
[5]; pH 7.5
  half-life (t1/2) in simulated intestinal fluid: (6) h
[5]
  % degradation in 24 h when incubated with simulated intestinal fluid: 55%
DPP IV enzyme
  % degradation in 24 h when incubated with DPP-IV enzyme: 76%
DPP IV enzyme; read-out: half-life (t1/2) with DPP-IV enzyme
  half-life: 540 min

## CCc1cc(OC)ccc1-c1ccc(CC(C)(NC(=O)[C@H](CC(=O)O)NC(=O)C(C)(CO)NC(=O)[C@@H](NC(=O)C(C)(Cc2c(F)cccc2F)NC(=O)[C@@H](NC(=O)CNC(=O)[C@H](CCC(=O)O)NC(=O)C(C)(C)NC(=O)[C@H](Cc2c[nH]cn2)NC(=O)[C@@H](N)C(C)C)[C@@H](C)O)[C@@H](C)O)C(=O)NC(C)(CCCc2ccccc2)C(N)=O)cc1 (single isomer, unassigned) [Seq. ID. No. 179, VH-Aib-EGT-(αMe-2,6-diFPhe)-T-(αMe-Ser)-D-(αMe-Bip(OMe))-(αMe-APPA)]
Male C57BL/6J mice; 20 nM/kg, i.p, 0 min
  blood glucose level (in vivo glucose reduction): 182 ± 2.1
Male C57BL/6J mice; 20 nM/kg, i.p, 30 min
  blood glucose level (in vivo glucose reduction): 121 ± 2.9
Male C57BL/6J mice; 20 nM/kg, i.p, 60 min
  blood glucose level (in vivo glucose reduction): 130 ± 3.1
Male C57BL/6J mice; 20 nM/kg, i.p, 120 min
  blood glucose level (in vivo glucose reduction): 138 ± 2.4

## CCc1cc(OC)ccc1-c1ccc(CC(C)(NC(=O)C(C)(CC(=O)O)NC(=O)[C@H](CO)NC(=O)[C@@H](NC(=O)C(C)(Cc2c(F)cccc2F)NC(=O)[C@@H](NC(=O)CNC(=O)[C@H](CCC(N)=O)NC(=O)C(C)(C)NC(=O)[C@H](Cc2c[nH]cn2)NC(=O)[C@@H](N)C(C)C)[C@@H](C)O)[C@@H](C)O)C(=O)NC(C)(CCCc2ccccc2)C(N)=O)cc1 (single isomer, unassigned) [Seq. ID. No. 199, VH-Aib-QGT-(αMe-2,6-diFPhe)-TS-(αMe-Asp)-(αMe-Bip(OMe))-(αMe-APPA)]
Male C57BL/6J mice; 30 nM/kg, i.p, 0 min
  blood glucose level (in vivo glucose reduction): 180 ± 1.2
Male C57BL/6J mice; 30 nM/kg, i.p, 30 min
  blood glucose level (in vivo glucose reduction): 116 ± 3.2
Male C57BL/6J mice; 30 nM/kg, i.p, 60 min
  blood glucose level (in vivo glucose reduction): 116 ± 3.1
Male C57BL/6J mice; 30 nM/kg, i.p, 120 min
  blood glucose level (in vivo glucose reduction): 118 ± 1.8

## CCc1cc(OC)ccc1-c1ccc(CC(C)(NC(=O)[C@H](CC(=O)O)NC(=O)C(C)(CO)NC(=O)[C@@H](NC(=O)C(C)(Cc2ccccc2F)NC(=O)[C@@H](NC(=O)CNC(=O)[C@H](CCC(N)=O)NC(=O)[C@H](C)NC(=O)[C@H](Cc2c[nH]cn2)NC(=O)[C@@H](N)C(C)C)[C@@H](C)O)[C@@H](C)O)C(=O)NC(C)(CCCc2ccccc2)C(N)=O)cc1 (single isomer, unassigned) [Seq. ID. No. 166, VHAQGT-(αMe-2FPhe)-T-(αMe-Ser)-D-(αMe-Bip(OMe))-(αMe-APPA)]
Male C57BL/6J mice; 0.5 μM/kg, oral, 0 min
  blood glucose level (in vivo glucose reduction): 184 ± 2.5
Male C57BL/6J mice; 0.5 μM/kg, oral, 30 min
  blood glucose level (in vivo glucose reduction): 115 ± 3.6
Male C57BL/6J mice; 0.5 μM/kg, oral, 60 min
  blood glucose level (in vivo glucose reduction): 113 ± 4.2
Male C57BL/6J mice; 0.5 μM/kg, oral, 120 min
  blood glucose level (in vivo glucose reduction): 110 ± 2.4

Reference: patent publication US20120264685A1 (priority 2009, published 2012)
